Results reported in the supplement of paper PMC10307832.

Columns and labels:
Assay in all cases: relative viability (nuclei count vs DMSO), 5 days (fraction); higher = more cells survive
[1] = compound: Cc1ccc(C(=O)Nc2ccc(CN3CCN(C)CC3)c(C(F)(F)F)c2)cc1C#Cc1cnc2cccnn12 [Ponatinib] + CCNC(=O)c1noc(-c2cc(C(C)C)c(O)cc2O)c1-c1ccc(CN2CCOCC2)cc1 [Luminespib] (partner 0.01 µM)
Procedure, shortened: (§1)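 Relative viability was taken as the ratio of nuclei in treated wells to nuclei in vehicle wells. Lung cancer cell lines in 1536-well plates received compounds by pin tool one day after seeding, either one drug alone or a fixed anchor-drug dose plus five library-drug doses (not always all listed) in √10 steps. Nuclei were counted on 4× images after 5 days of treatment, and values are medians of duplicate plates.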

[2] = compound: Cc1ccc(Nc2nccc(N(C)c3ccc4c(C)n(C)nc4c3)n2)cc1S(N)(=O)=O [Pazopanib] + C[C@]1(O)C[C@@H](c2nc(-c3ccc4ccc(-c5ccccc5)nc4c3)c3c(N)nccn32)C1 [Linsitinib] (partner 1 µM)
Procedure, shortened: as §1

[3] = compound: Cc1ccc(C(=O)Nc2ccc(CN3CCN(C)CC3)c(C(F)(F)F)c2)cc1C#Cc1cnc2cccnn12 [Ponatinib] + O=C(c1cc(Cc2n[nH]c(=O)c3ccccc23)ccc1F)N1CCN(C(=O)C2CC2)CC1 [Olaparib] (partner 8 µM)
Procedure, shortened: as §1

[4] = compound: Cc1ccc(Nc2nccc(N(C)c3ccc4c(C)n(C)nc4c3)n2)cc1S(N)(=O)=O [Pazopanib] + Nc1ncn([C@H]2C[C@H](O)[C@@H](CO)O2)c(=O)n1 [Decitabine] (partner 2 µM)
Procedure, shortened: as §1

Cell Line	relative viability ([1]; first compound 0.002 µM)	relative viability ([1]; first compound 0.006325 µM)	relative viability ([1]; first compound 0.06325 µM)	relative viability ([1]; first compound 0.2 µM)	relative viability ([2]; first compound 0.01 µM)	relative viability ([2]; first compound 0.03162 µM)	relative viability ([2]; first compound 0.1 µM)	relative viability ([2]; first compound 0.3162 µM)	relative viability ([2]; first compound 1 µM)	relative viability ([3]; first compound 0.002 µM)	relative viability ([3]; first compound 0.006325 µM)	relative viability ([3]; first compound 0.06325 µM)	relative viability ([3]; first compound 0.2 µM)	relative viability ([4]; first compound 0.01 µM)	relative viability ([4]; first compound 0.03162 µM)	relative viability ([4]; first compound 0.1 µM)	relative viability ([4]; first compound 0.3162 µM)	relative viability ([4]; first compound 1 µM)
201T	1.1	1.07	1.08	0.966	0.942	1.04	1.06	1.06	0.989	0.833	0.853	0.878	0.806	0.831	0.886	0.866	0.879	0.838
A549					0.452	0.638	0.591	0.598	0.757	0.299	0.384	0.394	0.384		0.276	0.281	0.273	0.332
A-427	0.908	0.799	1.08	0.75	1.09	1.09	1.13	1.14	1.16	0.707	0.835	0.842	0.66	0.554	0.538	0.554	0.533	0.613
ABC-1	0.558	0.42	0.745	0.239	0.835	0.917	0.751	0.738	0.779	0.893	0.776	0.776	0.693	1.01	1.12	1	1.31	0.807
BEN	0.259	0.296	0.24	0.576	0.819	0.969	0.894	0.956	0.898	1.06	1.18	1.13	0.92	0.579	0.791	0.726	0.831	0.782
CAL-12T	0.37	0.505	0.436	0.447	0.83	0.927	0.792	0.941	0.981	0.735	0.663	0.822	0.683					
COR-L23	0.658	0.618	0.669	0.513	1.02	1.01	0.988	1.15	0.975	0.277	0.349	0.335	0.303	0.457	0.43	0.442	0.459	0.49
COR-L 105	0.651	0.931	0.845	0.895	0.909	0.964	1.1	0.822	1.21	0.711	0.709	0.723	0.747	0.746	0.576	0.737	0.677	0.719
Calu-6					0.865	1.07	0.957	0.908	1.04	0.541	0.556	0.497	0.493					
ChaGo-K-1	0.562	0.651	0.571	0.553						0.438	0.486	0.41	0.436	0.541	0.482	0.516	0.528	0.535
EBC-1					0.964	0.979	0.977	0.922	0.979	0.625	0.756	0.77	0.644					
EKVX	0.941	0.959	0.954	0.871	0.95	1.04	0.869	1.03	1.04	0.956	0.897	0.971	0.767	0.374	0.303	0.324	0.356	0.472
EMC-BAC-2	1.06	1.15	1.28	1.07	0.758	0.855	0.864	0.84	0.803	0.434	0.455	0.482	0.398		1.01	0.999	0.974	1.16
EPLC-272H	0.323	0.255	0.521	0.199	0.98	1.13	1.25	1.26	1.17	0.777	0.9	0.778	0.624		0.336	0.353	0.337	0.369
H3255	0.862	0.887	0.805	0.929	0.888	0.954	1.01	0.814	1.03	0.573	0.534	0.602	0.554	0.42	0.618	0.602	0.718	0.668
HARA	0.683	0.948	0.749	0.682	0.916	0.862	1	1.03	1.03	0.757	0.825	0.777	0.874	0.484	0.615	0.6	0.543	0.602
HCC-15	0.306	0.22	0.661	0.212	0.872	0.905	0.94	0.882	1.03	0.673	0.721	0.767	0.738	0.53	0.712	0.572	0.59	0.827
HCC-44	0.96	0.976	1.22	1.01	0.575	0.673	0.678	0.582	0.722	0.942	0.997	0.923	0.929	0.913	0.949	0.941	0.984	1
HCC-78					0.403	0.578	0.435	0.454	0.668	0.836	0.819	0.825	0.726		0.729	0.648	0.691	0.818
HCC-366					0.472	0.73	0.674	0.828	0.885	0.323	0.382	0.482	0.328	0.384	0.302	0.378	0.326	0.473
